Numbers after ± are expanded uncertainties.
Settings: Liquid, Buoyancy - hydrostatic balance with magnetic suspension - one sinker

Compound `CCO` [ethanol] has a mass density (233.15 K, 103.29 kPa) of 840.318 ± 0.2 kg/m3, a mass density (233.15 K, 1104.7 kPa) of 840.959 ± 0.2 kg/m3 and a mass density (233.15 K, 2004.6 kPa) of 841.531 ± 0.2 kg/m3. It also gave a mass density (233.15 K, 4076.8 kPa) of 842.835 ± 0.2 kg/m3, a mass density (233.15 K, 6134.1 kPa) of 844.107 ± 0.2 kg/m3 and a mass density (233.15 K, 8092.6 kPa) of 845.306 ± 0.2 kg/m3. It also gave a mass density (233.15 K, 10007 kPa) of 846.455 ± 0.2 kg/m3, a mass density (233.15 K, 12137 kPa) of 847.721 ± 0.2 kg/m3 and a mass density (233.15 K, 14139 kPa) of 848.897 ± 0.2 kg/m3. The mass density (233.15 K, 16099 kPa) was 850.035 ± 0.2 kg/m3, the mass density (233.15 K, 18082 kPa) was 851.168 ± 0.2 kg/m3 and the mass density (233.15 K, 20011 kPa) was 852.258 ± 0.2 kg/m3. It also gave a mass density (233.15 K, 22096 kPa) of 853.419 ± 0.2 kg/m3, a mass density (233.15 K, 24040 kPa) of 854.493 ± 0.2 kg/m3 and a mass density (233.15 K, 25991 kPa) of 855.559 ± 0.2 kg/m3. The mass density (233.15 K, 27978 kPa) was 856.635 ± 0.2 kg/m3, the mass density (233.15 K, 29956 kPa) was 857.691 ± 0.2 kg/m3 and the mass density (253.15 K, 102.67 kPa) was 823.303 ± 0.19 kg/m3. The mass density (253.15 K, 1104.1 kPa) was 824.013 ± 0.19 kg/m3, the mass density (253.15 K, 2003.9 kPa) was 824.651 ± 0.19 kg/m3 and the mass density (253.15 K, 4116.4 kPa) was 826.119 ± 0.19 kg/m3. The mass density (253.15 K, 6065.7 kPa) was 827.455 ± 0.19 kg/m3, the mass density (253.15 K, 8137.6 kPa) was 828.849 ± 0.19 kg/m3 and the mass density (253.15 K, 10136 kPa) was 830.174 ± 0.19 kg/m3. It also gave a mass density (253.15 K, 12072 kPa) of 831.443 ± 0.19 kg/m3, a mass density (253.15 K, 14126 kPa) of 832.763 ± 0.19 kg/m3 and a mass density (253.15 K, 16133 kPa) of 834.037 ± 0.19 kg/m3. For the same compound, the mass density (253.15 K, 17950 kPa) was 835.17 ± 0.2 kg/m3, the mass density (253.15 K, 19863 kPa) was 836.357 ± 0.2 kg/m3 and the mass density (253.15 K, 22055 kPa) was 837.687 ± 0.2 kg/m3. The mass density (253.15 K, 23993 kPa) was 838.859 ± 0.2 kg/m3, the mass density (253.15 K, 25929 kPa) was 840.004 ± 0.2 kg/m3 and the mass density (253.15 K, 27985 kPa) was 841.212 ± 0.2 kg/m3. For the same compound, the mass density (253.15 K, 30009 kPa) was 842.379 ± 0.2 kg/m3, the mass density (273.15 K, 102.91 kPa) was 806.406 ± 0.19 kg/m3 and the mass density (273.15 K, 1099 kPa) was 807.191 ± 0.19 kg/m3. The mass density (273.15 K, 2003.9 kPa) was 807.905 ± 0.19 kg/m3, the mass density (273.15 K, 4161.8 kPa) was 809.57 ± 0.19 kg/m3 and the mass density (273.15 K, 6026.6 kPa) was 810.981 ± 0.19 kg/m3. The mass density (273.15 K, 8023.2 kPa) was 812.466 ± 0.19 kg/m3, the mass density (273.15 K, 10006 kPa) was 813.916 ± 0.19 kg/m3 and the mass density (273.15 K, 12107 kPa) was 815.421 ± 0.19 kg/m3. For the same compound, the mass density (273.15 K, 13929 kPa) was 816.718 ± 0.19 kg/m3, the mass density (273.15 K, 15980 kPa) was 818.142 ± 0.19 kg/m3 and the mass density (273.15 K, 17875 kPa) was 819.435 ± 0.19 kg/m3. For the same compound, the mass density (273.15 K, 20011 kPa) was 820.885 ± 0.19 kg/m3, the mass density (273.15 K, 21848 kPa) was 822.104 ± 0.19 kg/m3 and the mass density (273.15 K, 24050 kPa) was 823.548 ± 0.19 kg/m3. For the same compound, the mass density (273.15 K, 25880 kPa) was 824.728 ± 0.19 kg/m3, the mass density (273.15 K, 27865 kPa) was 826.002 ± 0.19 kg/m3 and the mass density (273.15 K, 29956 kPa) was 827.312 ± 0.19 kg/m3. For the same compound, the mass density (293.15 K, 103.01 kPa) was 789.433 ± 0.18 kg/m3, the mass density (293.15 K, 1103.9 kPa) was 790.313 ± 0.18 kg/m3 and the mass density (293.15 K, 2004 kPa) was 791.096 ± 0.18 kg/m3. The mass density (293.15 K, 4147.8 kPa) was 792.937 ± 0.18 kg/m3, the mass density (293.15 K, 6147.5 kPa) was 794.616 ± 0.18 kg/m3 and the mass density (293.15 K, 8110.8 kPa) was 796.232 ± 0.19 kg/m3. It also gave a mass density (293.15 K, 10008 kPa) of 797.758 ± 0.19 kg/m3, a mass density (293.15 K, 11860 kPa) of 799.229 ± 0.19 kg/m3 and a mass density (293.15 K, 13880 kPa) of 800.802 ± 0.19 kg/m3. The mass density (293.15 K, 15954 kPa) was 802.391 ± 0.19 kg/m3, the mass density (293.15 K, 17852 kPa) was 803.817 ± 0.19 kg/m3 and the mass density (293.15 K, 19967 kPa) was 805.383 ± 0.19 kg/m3. It also gave a mass density (293.15 K, 21842 kPa) of 806.743 ± 0.19 kg/m3, a mass density (293.15 K, 23888 kPa) of 808.2 ± 0.19 kg/m3 and a mass density (293.15 K, 25963 kPa) of 809.658 ± 0.19 kg/m3. For the same compound, the mass density (293.15 K, 27862 kPa) was 810.975 ± 0.19 kg/m3, the mass density (293.15 K, 30031 kPa) was 812.452 ± 0.19 kg/m3 and the mass density (313.15 K, 102.5 kPa) was 772.101 ± 0.18 kg/m3. It also gave a mass density (313.15 K, 1103.5 kPa) of 773.094 ± 0.18 kg/m3, a mass density (313.15 K, 2103.5 kPa) of 774.069 ± 0.18 kg/m3 and a mass density (313.15 K, 4116 kPa) of 775.994 ± 0.18 kg/m3. The mass density (313.15 K, 6079.7 kPa) was 777.835 ± 0.18 kg/m3, the mass density (313.15 K, 8130.4 kPa) was 779.714 ± 0.18 kg/m3 and the mass density (313.15 K, 10007 kPa) was 781.394 ± 0.18 kg/m3. The mass density (313.15 K, 12116 kPa) was 783.241 ± 0.18 kg/m3, the mass density (313.15 K, 14081 kPa) was 784.928 ± 0.18 kg/m3 and the mass density (313.15 K, 16092 kPa) was 786.617 ± 0.18 kg/m3. It also gave a mass density (313.15 K, 18056 kPa) of 788.235 ± 0.18 kg/m3, a mass density (313.15 K, 19919 kPa) of 789.747 ± 0.18 kg/m3 and a mass density (313.15 K, 22046 kPa) of 791.432 ± 0.18 kg/m3. For the same compound, the mass density (313.15 K, 24130 kPa) was 793.056 ± 0.18 kg/m3, the mass density (313.15 K, 26107 kPa) was 794.571 ± 0.18 kg/m3 and the mass density (313.15 K, 27987 kPa) was 795.987 ± 0.19 kg/m3. The mass density (313.15 K, 29995 kPa) was 797.476 ± 0.19 kg/m3, the mass density (333.15 K, 1102.5 kPa) was 755.18 ± 0.18 kg/m3 and the mass density (333.15 K, 2002.7 kPa) was 756.173 ± 0.18 kg/m3. The mass density (333.15 K, 4085.9 kPa) was 758.43 ± 0.18 kg/m3, the mass density (333.15 K, 6133 kPa) was 760.589 ± 0.18 kg/m3 and the mass density (333.15 K, 8031.9 kPa) was 762.538 ± 0.18 kg/m3. The mass density (333.15 K, 9967.1 kPa) was 764.48 ± 0.18 kg/m3, the mass density (333.15 K, 12099 kPa) was 766.557 ± 0.18 kg/m3 and the mass density (333.15 K, 13992 kPa) was 768.358 ± 0.18 kg/m3. It also gave a mass density (333.15 K, 16124 kPa) of 770.342 ± 0.18 kg/m3, a mass density (333.15 K, 18019 kPa) of 772.071 ± 0.18 kg/m3 and a mass density (333.15 K, 20012 kPa) of 773.85 ± 0.18 kg/m3. It also gave a mass density (333.15 K, 22050 kPa) of 775.625 ± 0.18 kg/m3, a mass density (333.15 K, 24136 kPa) of 777.409 ± 0.18 kg/m3 and a mass density (333.15 K, 26130 kPa) of 779.08 ± 0.18 kg/m3. The mass density (333.15 K, 28069 kPa) was 780.679 ± 0.18 kg/m3, the mass density (333.15 K, 30018 kPa) was 782.258 ± 0.18 kg/m3 and the mass density (353.15 K, 1101.8 kPa) was 736.102 ± 0.17 kg/m3. For the same compound, the mass density (353.15 K, 2002.9 kPa) was 737.255 ± 0.17 kg/m3 and the mass density (353.15 K, 4009.6 kPa) was 739.749 ± 0.17 kg/m3.
